From patent US11986659B2, “Modulation of neuronal NKCC1 as a therapeutic strategy for spasticity and related disorders” (Research Foundation of the City University of New York, priority 2018, dated 2024)

Key:
[1] = tested on: animals with spasticity following SCI; test: Stretch-apparatus test of spasticity (muscle resistance, EMG) in mice with SCI after bumetanide injection; format: in vivo, CD-1 mice
From the text: (§1) Adult female CD-1 mice (n=120 weight, 27-37 g) were used for all of the animal studies performed. A total of 51 animals were used for the long-term stimulation studies that included four groups. Animals with SCI were randomly divided into three groups: a-tsDCS-treated group (n=16), a c-tsDCS-treated group (n=15), and a sham-treated group (n=10), and a non-injured control group (n=10). Subgroups of these animals were also used to study long-term changes in expression for KCC2, pKCC2, NKCC1, and pNKCC1. Injured animals with spasticity were used to test the immediate effect of tsDCS on rate-dependent depression (RDD) (n=6), while the relatively short-term effects of tsDCS on the expression of NKCC1 and pNKCC1 were studied in non-injured animals (n=10). Pharmacological studies involving bumetanide (NKCC1 blocker) were conducted with SCI animals (n=9) and non-injured control animals (n=3). Meanwhile, qPCR studies were conducted with non-injured control animals (n=41). All of the study protocols were approved by the College of Staten Island IACUC committee.
Following administration of a ketamine/xylazine cocktail (90/10 mg/kg, i.p.) to achieve deep anesthesia, a laminectomy at thoracic T10 vertebra was performed to expose the T13 spinal segment. An infinite horizon (IH) spinal cord impactor (IH-0400, Precision Systems & Instrumentation, VA, USA) was used to induce a contusive SCI force. The impact force level was 60 kdyn and was selected based on data collected from exploratory experiments that were conducted with this impactor. In these preliminary studies, contusion injuries were induced with increasing impact forces in order to optimize the SCI contusion force needed to produce spastic mice. Mice impacted at 60 kdyn produced ideal spastic behavior at approximately 2-3 weeks post-injury. Impact was applied by using a standard mouse tip (diameter=1.3 mm). Following the contusion procedure, overlying muscles and skin were sutured and the surgical site was covered with a layer of gentamicin sulfate ointment to prevent infection. Each mouse subsequently received a number and then was placed on a warming pad (30° C.) for recovery.
A computer-controlled stretch device was assembled in our laboratory from a stepper motor (DMX-UMD-23m, ARCUS Technology Inc., CA. USA), a foot presser mounted on a force-displacement transducer (FT03, GRASS Technologies/NATUS, CA, USA) connected to a bridge amplifier (ADInstruments, Colorado Springs, CO, USA), and a mouse holder (FIG. 1). The transducer was permanently fixed to a linear rail-guided carriage (SGB15NUU, ZNT Automatic Technology Co, Zhejiang, China). The rotational movement of the stepper motor is converted into linear displacement at the carriage by using a set of jointed flat-aluminum rods that are connected with swivel hub bearings. Two computer software programs were utilized to control the stepper motor and to perform the online (during) stretch and electromyogram (EMG) recordings. First, a stepper motor control software (DMX-UMD GUI, ARCUS Technology Inc.) was re-written to permit the execution of three consecutively timed stretches, with each stretch separated by two 10-s recovery intervals. The stepper motor was also programmed to provide three different stretch speeds: 18/s, 180/s, and 1800/s, which correspond to 3 RPM, 30 RPM, and 300 RPM, respectively. The second software package used was LabChart-7 bundled with PowerLab data acquisition system software (ADInstruments) which was used to gather and analyze data.
A mouse restraining system was fabricated in our laboratory (FIG. 1) from three components. 1) A clear Plexiglas acrylic tube served as the mouse holding chamber. 2) An internally adjustable support system made of a clear acrylic concave stabilization plate. The location of the plate was able to be adjusted linearly along the length of the chamber via a handle that protruded through a cutout that ran the entire length of the tube. […]

[2] = tested on: non-injured control animals; test: Stretch response in non-injured control animals after bumetanide injection; format: in vivo, CD-1 mice
From the text: as §1, with “committee. […]” for “committee.”

[3] = 60 mg/kg, 5, 20, 30 and 45 min after injection vs baseline, p<0.001

In the case of `CCCCNc1cc(C(=O)O)cc(S(N)(=O)=O)c1Oc1ccccc1` [bumetanide], the reductions in spasticity ([1]; 30 mg/kg, one hour after administration, n=5, data not shown) is reported as “moderate reductions in spasticity”, the “corresponding EMG” value [1, 3] is reported as “significant reduction” and the “reduction in peak resistance (reflexive muscle resistance)” value [1, 3] is reported as 34%. The “background activity and resting muscle tone on slow stretches” value ([1]; 60 mg/kg, thirty min after injection) was “reduce background activity and resting muscle tone”, the “spasticity following bumetanide treatment” value ([1]; SCI mice, dose not given) was “spasticity was reduced” and the “muscle resistance and concurrent EMG at low speed and high speed (FIG. 9)” value ([1]; following bumetanide injection, n=9 mice, vs baseline 2) was “decreases in muscle resistance and concurrent EMG”. The “animals exhibiting a reduced reflexive stretch response” value ([2]; 60 mg/kg, non-injured control animals) was 21% and the “reduction in reflexive muscle resistance in controls” value ([2]; after bumetanide injection, controls) was 21 °/0.
